For 36 molecules, IC50 and EC50 results are on record in patent publication US11447486B2, “2-amino-benzimidazole derivatives and their use as 5-lipoxygenase and/or prostaglandin E synthase inhibitors” (INSTITUT PASTEUR KOREA, priority 2014, dated 2022).

Where only a bound is given, the exact number is not on record here.

Assay [1] concerns the target T1, human 5-LOX (Homo sapiens, UniProt P09917).
T1 construct: purchased Cayman 60402; host or cells: insect cells (lysate)
T1 sequence (P09917 1-674): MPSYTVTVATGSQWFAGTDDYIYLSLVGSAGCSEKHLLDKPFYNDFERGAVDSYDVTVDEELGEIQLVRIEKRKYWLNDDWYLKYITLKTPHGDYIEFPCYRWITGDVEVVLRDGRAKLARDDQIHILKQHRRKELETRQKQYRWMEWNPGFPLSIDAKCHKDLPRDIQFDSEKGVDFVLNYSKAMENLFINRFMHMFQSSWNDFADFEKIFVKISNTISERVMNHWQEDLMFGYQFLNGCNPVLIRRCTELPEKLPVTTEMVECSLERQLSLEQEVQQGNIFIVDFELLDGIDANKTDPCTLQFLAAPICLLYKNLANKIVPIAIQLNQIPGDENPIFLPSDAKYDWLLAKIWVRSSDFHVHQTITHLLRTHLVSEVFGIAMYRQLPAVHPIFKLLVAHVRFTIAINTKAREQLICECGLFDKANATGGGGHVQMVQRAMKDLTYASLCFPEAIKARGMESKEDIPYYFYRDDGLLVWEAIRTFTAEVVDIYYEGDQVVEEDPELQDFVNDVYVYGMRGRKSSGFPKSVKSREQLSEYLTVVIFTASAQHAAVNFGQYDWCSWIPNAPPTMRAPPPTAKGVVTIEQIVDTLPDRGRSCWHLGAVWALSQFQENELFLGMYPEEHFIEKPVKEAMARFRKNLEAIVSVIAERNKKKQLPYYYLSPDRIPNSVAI
Description: 5-LOX enzyme activity, fluorescence method (5-HPETE, H2DCFDA). Type of assay: biochemical. Conditions: read-out: 5-LO (IC50). In a few lines:
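Compound (0.5 nM to 10 uM) pre-incubated 5 min with enzyme; reaction started with ATP (100 uM final) and arachidonic acid (3 uM final). All steps at room temperature, fluorescence read-out.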

For assay [2], the system named is Rat basophilic leukemia (RBL) cells. Kind of assay: LTB4 secretion assay in RBL (rat basophilic leukemia cells). Type of assay: cell-based. Particulars: Rattus norvegicus, RBL. In a few lines:
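Cells seeded 2×10^4/well the day before, then pre-incubated 15 min at 37 °C in EMEM/0.5% FBS with compound (5 nM to 100 uM). Stimulation with 2.5 uM arachidonic acid plus 5 uM A23187 (final) for 10 min at 37 °C; LTB4 in supernatant quantified by EIA.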

Assay [3] deals with Rat whole blood (RWB). Kind of assay: LTB4 secretion assay in RWB (rat whole blood). Type of assay: cell-based. Conditions: Rattus norvegicus. The procedure: Rat blood was drawn from caudal vena cava from male Sprague Dawley rat (6-9 weeks old) in vacuette coated with sodium heparin (Greiner bio-one, Cat #455051). The blood was pooled and diluted with RPMI (WelGENE, Cat #LM 011-05) to 1:1. The diluted blood was aliquoted into 96 well plate (200 ul per well) and compounds were added in dose response to a desired concentration ranging from 2.5 nM to 50 uM. After 15 min of pre-incubation at 37° C., calcium ionophore (A23187) was added to the final concentration of 10 uM. After 10 min of further incubation at 37° C., the LTB4 production was stopped by diluting the reaction mixture with ice cold PBS (1:4 dilutions). Cells were removed by centrifugation at 1000×g, 4° C. for 10 min, and the supernatant was transferred and then the quantification of LTB4 was done with Leukotriene B4 EIA kit (Cayman, Cat #520111) as instructed.

On to `CN(C)c1nc2ccc(NCc3ccc(C4(C#N)CCOCC4)cc3)cc2[nH]1` [Compound 241], for which, in assay [1], the IC50 was below 1 µM. Also, the EC50 in assay [2] was below 10 µM; in assay [3], above 20 µM.

Regarding `Cn1c(NCc2ccc(Oc3cnc(Cl)nc3)cc2)nc2ccc(NC3COC3)cc21` [Compound 341], the IC50 in assay [1] is below 1 µM. Also, the values for the EC50 in assay [2] and in assay [3] were 10 to 20 µM and below 10 µM, respectively.

Take `CCC(Nc1ccc2[nH]c(N(C)C)nc2c1)c1ccc(Oc2ccc(OC(F)(F)F)cc2)cc1` (stereo not drawn) [Compound 132]: the half-inhibitory concentration (IC50) in assay [1] is below 1 µM. Further, the EC50 in assay [2] was below 10 µM; in assay [3], above 20 µM.

As to `Nc1nc2ccc(NC3COC3)cc2n1Cc1ccc(Oc2ccc(Cl)cc2)cc1` [Compound 231], the IC50 in assay [1] is below 1 µM. In addition, the EC50 in assay [2] and in assay [3] was below 10 µM throughout.

As for `Cn1c(NCc2ccc(Oc3ccc(OC(F)(F)F)cn3)cc2)nc2ccc(NC3COC3)cc21` [Compound 378], the 50% inhibitory concentration (IC50) in assay [1] was below 1 µM. Besides, the EC50 in assay [2] and in assay [3] was below 10 µM in each case.

For the molecule `Nc1ccc2nc(NCCOc3ccc(OC(F)(F)F)cc3)[nH]c2c1` [Compound 62], in assay [1], the IC50 is below 1 µM. For the same molecule, the EC50 in assay [2] and in assay [3] was below 10 µM throughout.

On to `Cn1nc(Nc2ccc3nc(NCc4ccc(Oc5ncc(Cl)cn5)cc4F)n(C)c3c2)cc1C(F)(F)F` [Compound 503], for which the concentration for half-maximal inhibition (IC50) in assay [1] was below 1 µM. For the same molecule, the EC50 in assay [2] and in assay [3] was below 10 µM each time.

Consider `CCn1c(NCc2ccc(Oc3ncc(C(F)(F)F)cn3)cc2)nc2ccc(Nc3n[nH]c(C)c3Cl)cc21` [Compound 508], for which the IC50 in assay [1] fell in the range of 1 to 10 µM. In addition, the EC50 in assay [2] and in assay [3] was below 10 µM in each case.

`Clc1ccc(Oc2ccc(CNc3nc4cc(NC5COC5)ccc4[nH]3)cc2)cc1` [Compound 125]: the IC50 in assay [1] is below 1 µM. The EC50 in assay [2] and in assay [3] was below 10 µM each time.

Turning to `Cn1nc(Nc2ccc3nc(NCc4ccc(Oc5ncc(Cl)cn5)cc4)n(C)c3c2)cc1C(F)F` [Compound 532], in assay [1], the 50% inhibitory concentration (IC50) is below 1 µM. Besides, the EC50 in assay [2] and in assay [3] was below 10 µM throughout.

For the molecule `Cc1cc(Nc2ccc3nc(NCc4ccc(Oc5ncc(Cl)cn5)cc4)n(CCC(F)(F)F)c3c2)n[nH]1` [Compound 491], the IC50 in assay [1] was below 1 µM. Further, the EC50 in assay [2] and in assay [3] was below 10 µM in each case.

On to `Cc1cc(Oc2ccc(Cl)cn2)ccc1CNc1nc2ccc(NC3COC3)cc2n1C` [Compound 291], for which the half-inhibitory concentration (IC50) in assay [1] is below 1 µM. The values for the concentration for a half-maximal effect (EC50) in assay [2] and in assay [3] were below 10 µM and 10 to 20 µM, respectively.

For the molecule `Cn1c(NCc2ccc(Oc3ccc(Cl)cc3)cc2)nc2ccc(N3CC(F)(F)C3)cc21` [Compound 193], the IC50 in assay [1] is above 10 µM. In addition, the EC50 in assay [2] and in assay [3] was below 10 µM each time.

Regarding `CCC(Nc1nc2ccc(Nc3cc(C(F)(F)F)n(C)n3)cc2n1C)c1ccc(Oc2ncc(Cl)cn2)cc1` (stereo not drawn) [Compound 505], the IC50 in assay [1] was below 1 µM. Further, the EC50 in assay [2] and in assay [3] was below 10 µM each time.

Turning to `CCn1c(NCc2ccc(Oc3cnc(Cl)cn3)cc2)nc2ccc(Nc3cc(C(C)(C)C)[nH]n3)cc21` [Compound 514], the IC50 in assay [1] is below 1 µM. For the same molecule, the EC50 in assay [2] and in assay [3] was below 10 µM each time.

With `CCn1c(NCc2ccc(Oc3ncc(Cl)cn3)cc2)nc2c(F)cc(NC3COC3)cc21` [Compound 555], the IC50 in assay [1] is below 1 µM. The EC50 in assay [2] and in assay [3] was 10 to 20 µM in each case.

With `CN(C)c1nc2ccc(NCc3ccc(OCc4ncco4)cc3)cc2[nH]1` [Compound 233], the IC50 in assay [1] is below 1 µM. For the same molecule, the EC50 in assay [2] and in assay [3] was below 10 µM each time.

As to `Cc1cc(Nc2ccc3nc(NCc4ccc(Oc5ccc(OC(F)(F)F)cn5)cc4)n(C)c3c2)n[nH]1` [Compound 496], in assay [1], the IC50 was below 1 µM. Further, the EC50 in assay [2] and in assay [3] was below 10 µM each time.

Turning to `Cn1c(NCc2ccc(Nc3ncc(Cl)cn3)cc2)nc2ccc(NC3COC3)cc21` [Compound 461], in assay [1], the concentration for half-maximal inhibition (IC50) was below 1 µM. The EC50 in assay [2] and in assay [3] was below 10 µM each time.

On to `CCC(Nc1nc2ccc(NC3COC3)cc2n1C)c1ccc(Oc2ncc(C(F)(F)F)cn2)cc1F` (stereo not drawn) [Compound 543], for which, in assay [1], the IC50 is below 1 µM. The EC50 in assay [2] and in assay [3] was below 10 µM each time.

`Nc1ccc2[nH]c(NCc3ccc(Oc4ccc(OC(F)(F)F)cc4)cc3)nc2c1` [Compound 88]: the IC50 in assay [1] is below 1 µM. Also, the EC50 in assay [2] and in assay [3] was below 10 µM in each case.

As to `CCn1c(NCc2ccc(Oc3cnc(C(F)(F)F)cn3)cc2)nc2ccc(Nc3cc(C(F)(F)F)n(C)n3)cc21` [Compound 523], the IC50 in assay [1] was above 10 µM. In addition, the EC50 in assay [2] was below 10 µM; in assay [3], 10 to 20 µM.

Consider `CN(C)c1nc2ccc(N3CCC(C(=O)c4ccc(OC(F)(F)F)cc4)C3)cc2[nH]1` (stereo not drawn) [Compound 190], for which the 50% inhibitory concentration (IC50) in assay [1] is below 1 µM. Besides, the EC50 in assay [2] is below 10 µM; in assay [3], above 20 µM.

As to `Nc1ccc2[nH]c(NCc3ccc(OC(F)(F)F)cc3)nc2c1` [Compound 79], the half-maximal inhibitory concentration (IC50) in assay [1] is below 1 µM. Also, the EC50 in assay [2] and in assay [3] was below 10 µM each time.

For `Cn1c(NCc2ccc(Oc3nccc(C(F)(F)F)n3)cc2)nc2ccc(NC3COC3)cc21` [Compound 364], in assay [1], the IC50 is below 1 µM. In addition, the concentration for a half-maximal effect (EC50) in assay [2] and in assay [3] was above 20 µM throughout.

Turning to `Cn1c(NCc2c(F)cc(Oc3ncc(Cl)cn3)cc2F)nc2ccc(NC3COC3)cc21` [Compound 431], in assay [1], the IC50 is below 1 µM. For the same molecule, the EC50 in assay [2] and in assay [3] was below 10 µM throughout.

For the molecule `Cn1c(NCc2ccc(Oc3ccc(Cl)cc3)cc2)nc2ccc(NC3COC3)cc21` [Compound 184], in assay [1], the half-inhibitory concentration (IC50) was below 1 µM. Moreover, the concentration for a half-maximal effect (EC50) in assay [2] and in assay [3] was below 10 µM in each case.

As for `Nc1ccc2nc(N3CCC3)n(CCOc3ccc(OC(F)(F)F)cc3)c2c1` [Compound 68], the IC50 in assay [1] is below 1 µM. Besides, the EC50 was below 10 µM in assay [2] and above 20 µM in assay [3].

With `Cc1cc(Nc2ccc3nc(NCc4ccc(Oc5nccc(Cl)n5)cc4)n(C)c3c2)n[nH]1` [Compound 489], in assay [1], the IC50 is below 1 µM. The EC50 in assay [2] and in assay [3] was below 10 µM throughout.

For the molecule `Cn1c(NCc2ccc(Oc3ncc(C#N)cn3)cc2)nc2ccc(NC3COC3)cc21` [Compound 368], the IC50 in assay [1] is below 1 µM. Also, the EC50 in assay [2] and in assay [3] was below 10 µM throughout.

In the case of `CC(C)(C)Nc1nc2ccc(N)cc2n1CC(=O)Nc1ccc(OC(F)(F)F)cc1` [Compound 67], the IC50 in assay [1] was below 1 µM. For the same molecule, the concentration for a half-maximal effect (EC50) in assay [2] was below 10 µM; in assay [3], above 20 µM.

As to `CCn1c(NCc2ccc(Oc3ncc(C(F)(F)F)cn3)cc2)nc2ccc(Nc3ccn(C)n3)cc21` [Compound 525], the IC50 in assay [1] is below 1 µM. The EC50 in assay [2] and in assay [3] was below 10 µM each time.

In the case of `CCC(Nc1nc2ccc(Nc3cc(C)[nH]n3)cc2n1C)c1ccc(Oc2ncc(C(F)(F)F)cn2)cc1F` (stereo not drawn) [Compound 541], the IC50 in assay [1] was below 1 µM. Besides, the EC50 in assay [2] and in assay [3] was below 10 µM in each case.

With `CC(CC(F)(F)F)Oc1ccc(CNc2nc3ccc(N)cc3[nH]2)cc1` (stereo not drawn) [Compound 172], the IC50 in assay [1] was below 1 µM. In addition, the figures for the EC50 in assay [2] and in assay [3] were below 10 µM and 10 to 20 µM, respectively.

`Cc1csc(Nc2ccc3nc(NCc4ccc(Oc5ncc(Cl)cn5)cc4)n(C)c3c2)n1` [Compound 501]: in assay [1], the IC50 was below 1 µM. Also, the EC50 in assay [2] and in assay [3] was below 10 µM in each case.

Take `CCC(Nc1nc2ccc(Nc3cc(C(F)(F)F)n(C)n3)cc2n1C)c1ccc(Oc2ncc(C(F)(F)F)cn2)cc1F` (stereo not drawn) [Compound 528]: the IC50 in assay [1] was above 10 µM. Moreover, the EC50 in assay [2] and in assay [3] was below 10 µM in each case.
